PubChem BioAssay (NCI)
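Method: 48-hour compound exposure of cells in 96-well plates, five concentrations, linear interpolation of endpoints. TGI is the concentration that stops growth completely.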

Key:
Test in all cases: NCI tumour cell line growth inhibition, 48 h
A498 renal = test system: A498 renal
A549 NSCLC = test system: A549 NSCLC
CAKI-1 renal = test system: CAKI-1 renal
CCRF-CEM leukemia = test system: CCRF-CEM leukemia
COLO 205 colon = test system: COLO 205 colon
DLD-1 colon = test system: DLD-1 colon
DMS 114 small cell lung = test system: DMS 114 small cell lung
DMS 273 small cell lung = test system: DMS 273 small cell lung
EKVX NSCLC = test system: EKVX NSCLC
HCC-2998 colon = test system: HCC-2998 colon
HCT-116 colon = test system: HCT-116 colon
HCT-15 colon = test system: HCT-15 colon
HL-60(TB) leukemia = test system: HL-60(TB) leukemia
HOP-18 NSCLC = test system: HOP-18 NSCLC
HOP-62 NSCLC = test system: HOP-62 NSCLC
HOP-92 NSCLC = test system: HOP-92 NSCLC
HT29 colon = test system: HT29 colon
IGROV1 ovarian = test system: IGROV1 ovarian
K-562 leukemia = test system: K-562 leukemia
KM12 colon = test system: KM12 colon
KM20L2 colon = test system: KM20L2 colon
LOX IMVI melanoma = test system: LOX IMVI melanoma
M19-MEL melanoma = test system: M19-MEL melanoma
MALME-3M melanoma = test system: MALME-3M melanoma
MCF7 breast = test system: MCF7 breast
MOLT-4 leukemia = test system: MOLT-4 leukemia
NCI-H226 lung = test system: NCI-H226 lung
NCI-H23 lung = test system: NCI-H23 lung
NCI-H460 lung = test system: NCI-H460 lung
NCI-H522 lung = test system: NCI-H522 lung
NCI/ADR-RES ovarian = test system: NCI/ADR-RES ovarian
OVCAR-3 ovarian = test system: OVCAR-3 ovarian
OVCAR-4 ovarian = test system: OVCAR-4 ovarian
OVCAR-5 ovarian = test system: OVCAR-5 ovarian
OVCAR-8 ovarian = test system: OVCAR-8 ovarian
P388 leukemia = test system: P388 leukemia
P388/ADR leukemia = test system: P388/ADR leukemia
RPMI-8226 leukemia = test system: RPMI-8226 leukemia
RXF 393 renal = test system: RXF 393 renal
SF-268 CNS = test system: SF-268 CNS
SF-295 CNS = test system: SF-295 CNS
SF-539 CNS = test system: SF-539 CNS
SK-MEL-2 melanoma = test system: SK-MEL-2 melanoma
SK-MEL-28 melanoma = test system: SK-MEL-28 melanoma
SK-MEL-5 melanoma = test system: SK-MEL-5 melanoma
SK-OV-3 ovarian = test system: SK-OV-3 ovarian
SN12C renal = test system: SN12C renal
SN12K1 renal = test system: SN12K1 renal
SNB-19 CNS = test system: SNB-19 CNS
SNB-75 CNS = test system: SNB-75 CNS
SNB-78 CNS = test system: SNB-78 CNS
SW-620 colon = test system: SW-620 colon
U251 CNS = test system: U251 CNS
UACC-257 melanoma = test system: UACC-257 melanoma
UACC-62 melanoma = test system: UACC-62 melanoma
UO-31 renal = test system: UO-31 renal
XF 498 CNS = test system: XF 498 CNS

CCCCC1=C(Br)C(=C(Br)Br)OC1=O was tested, and the TGI (A498 renal) was 31 µM, the TGI (A549 NSCLC) was 33.8 µM and the TGI (CAKI-1 renal) was 5.53 µM. The TGI (CCRF-CEM leukemia) was 7.81 µM, the TGI (COLO 205 colon) was 8.11 µM and the TGI (DLD-1 colon) was 4.37 µM. The TGI (DMS 114 small cell lung) was 5.71 µM, the TGI (DMS 273 small cell lung) was 8.01 µM and the TGI (EKVX NSCLC) was 10.6 µM. It also gave a TGI (HCC-2998 colon) of 18.1 µM, a TGI (HCT-116 colon) of 8.85 µM and a TGI (HCT-15 colon) of 5.55 µM. For the same compound, the TGI (HL-60(TB) leukemia) was 5.38 µM, the TGI (HOP-18 NSCLC) was 10.5 µM and the TGI (HOP-62 NSCLC) was 19 µM. For the same compound, the TGI (HOP-92 NSCLC) was 23.4 µM, the TGI (HT29 colon) was 10.2 µM and the TGI (IGROV1 ovarian) was 5.92 µM. The TGI (K-562 leukemia) was 13 µM, the TGI (KM12 colon) was 9.28 µM and the TGI (KM20L2 colon) was 24.8 µM. The TGI (LOX IMVI melanoma) was 4.78 µM, the TGI (M19-MEL melanoma) was 8.42 µM and the TGI (MALME-3M melanoma) was 5.31 µM. For the same compound, the TGI (MCF7 breast) was 15.4 µM, the TGI (MOLT-4 leukemia) was 5.66 µM and the TGI (NCI-H226 lung) was 9.35 µM. It also gave a TGI (NCI-H23 lung) of 15.8 µM, a TGI (NCI-H460 lung) of 16.8 µM and a TGI (NCI-H522 lung) of 3.5 µM. It also gave a TGI (NCI/ADR-RES ovarian) of 11.9 µM, a TGI (OVCAR-3 ovarian) of 6.05 µM and a TGI (OVCAR-4 ovarian) of 3.32 µM. For the same compound, the TGI (OVCAR-5 ovarian) was 30.3 µM, the TGI (OVCAR-8 ovarian) was 11.4 µM and the TGI (P388 leukemia) was 2400 nM. For the same compound, the TGI (P388/ADR leukemia) was 5.76 µM, the TGI (RPMI-8226 leukemia) was 4.67 µM and the TGI (RXF 393 renal) was 5.95 µM. For the same compound, the TGI (SF-268 CNS) was 7.9 µM, the TGI (SF-295 CNS) was 23.7 µM and the TGI (SF-539 CNS) was 10.5 µM. It also gave a TGI (SK-MEL-2 melanoma) of 8.49 µM, a TGI (SK-MEL-28 melanoma) of 7.78 µM and a TGI (SK-MEL-5 melanoma) of 13.5 µM. For the same compound, the TGI (SK-OV-3 ovarian) was 31.4 µM, the TGI (SN12C renal) was 7.92 µM and the TGI (SN12K1 renal) was 3.96 µM. The TGI (SNB-19 CNS) was 20.3 µM, the TGI (SNB-75 CNS) was 16.5 µM and the TGI (SNB-78 CNS) was 37 µM. For the same compound, the TGI (SW-620 colon) was 12.4 µM, the TGI (U251 CNS) was 17.1 µM and the TGI (UACC-257 melanoma) was 6.16 µM. The TGI (UACC-62 melanoma) was 6.51 µM, the TGI (UO-31 renal) was 24.2 µM and the TGI (XF 498 CNS) was 19.9 µM.
